Assay results from PubChem BioAssay AID256 (DTP/NCI, 2004).
Values joined by “and” are separate entries in the source; they are usually repeats but may differ in a detail not shown here. Identical values can stand only once. Inconclusive results and toxic doses are left out.

System: CD2F1 mice, L1210 leukemia ip, survival T/C
Assay: NCI In Vivo Anticancer Drug Screen. Data for tumor model L1210 Leukemia (intraperitoneal) in CD2F1 (CDF1) mice
Conditions: higher = longer survival
Protocol: The antitumor activity of compounds was measured in mice bearing transplantable tumors. Survival or tumor size were measured and the results are expressed as the measurement made in the treated group (T) divided by the measurement made in the vehicle treated control group (C). The tumor model used in this assay is L1210 Leukemia (intraperitoneal) in CD2F1 (CDF1) mice

[1] = endpoint: mean survival time, dose: 100.0 mg/kg/injection, schedule: Q04DX003 (ip), vehicle: saline with Tween-80
[2] = endpoint: mean survival time, dose: 100.0 mg/kg/injection, schedule: Q01DX009 (ip), vehicle: saline with Tween-80
[3] = endpoint: mean survival time, dose: 200.0 mg/kg/injection, schedule: Q01DX009 (ip), vehicle: saline with Tween-80
[4] = endpoint: mean survival time, dose: 200.0 mg/kg/injection, schedule: Q04DX003 (ip), vehicle: saline with Tween-80
[5] = endpoint: mean survival time, dose: 400.0 mg/kg/injection, schedule: Q01DX009 (ip), vehicle: saline with Tween-80
[6] = endpoint: mean survival time, dose: 400.0 mg/kg/injection, schedule: Q04DX003 (ip), vehicle: saline with Tween-80
[7] = endpoint: mean survival time, dose: 200.0 mg/kg/injection, schedule: Q01DX001 (ip), vehicle: saline
[8] = endpoint: mean survival time, dose: 1.56 mg/kg/injection, schedule: Q01DX009 (ip), vehicle: saline

## COc1cccc(/C=C/C(=O)O)c1OC
endpoint: mean survival time, dose: 25.0 mg/kg/injection, schedule: Q01DX009 (ip), vehicle: water
  T/C: 88 % of control
endpoint: mean survival time, dose: 50.0 mg/kg/injection, schedule: Q01DX009 (ip), vehicle: water
  T/C: 88 % of control
endpoint: mean survival time, dose: 100.0 mg/kg/injection, schedule: Q01DX009 (ip), vehicle: water
  T/C: 101 % of control
endpoint: mean survival time, dose: 200.0 mg/kg/injection, schedule: Q01DX009 (ip), vehicle: water
  T/C: 95 % of control
endpoint: mean survival time, dose: 400.0 mg/kg/injection, schedule: Q01DX009 (ip), vehicle: water
  T/C: 95 % of control

## CC1CCC(c2cc(-c3ccccc3)n(-c3ccccc3)n2)CC1 (stereo not given)
endpoint: mean survival time, dose: 100.0 mg/kg/injection, schedule: Q04DX003 (ip), vehicle: acetone
  T/C: 103 % of control
endpoint: mean survival time, dose: 200.0 mg/kg/injection, schedule: Q04DX003 (ip), vehicle: acetone
  T/C: 101 % of control
endpoint: mean survival time, dose: 400.0 mg/kg/injection, schedule: Q04DX003 (ip), vehicle: acetone
  T/C: 93 % of control

## C[n+]1ccccc1C#N
endpoint: mean survival time, dose: 25.0 mg/kg/injection, schedule: Q01DX009 (ip), vehicle: saline sonified
  T/C: 102 % of control
endpoint: mean survival time, dose: 50.0 mg/kg/injection, schedule: Q01DX009 (ip), vehicle: saline sonified
  T/C: 102 % of control
[1]
  T/C: 95 % of control

## C=CCNS(=O)(=O)c1ccc(C)cc1
[2]
  T/C: 93 % of control
[1]
  T/C: 98 % of control
[3]
  T/C: 100 % of control
[4]
  T/C: 98 % of control
[5]
  T/C: 90 % of control
[6]
  T/C: 94 % of control

## Nc1nc(=O)n(CCCOc2cccc(Cl)c2)cc1-c1ccc(Cl)c(Cl)c1
endpoint: mean survival time, dose: 100.0 mg/kg/injection, schedule: Q01DX001 (ip), vehicle: saline with Tween-80
  T/C: 96 % of control
endpoint: mean survival time, dose: 200.0 mg/kg/injection, schedule: Q01DX001 (ip), vehicle: saline with Tween-80
  T/C: 89 % of control
endpoint: mean survival time, dose: 400.0 mg/kg/injection, schedule: Q01DX001 (ip), vehicle: saline with Tween-80
  T/C: 91 % of control

## ClC1C(Cl)C(Cl)C(Cl)C(Cl)C1Cl (stereo not given)
endpoint: mean survival time, dose: 10.0 mg/kg/injection, schedule: Q01DX009 (ip), vehicle: saline with Tween-80
  T/C: 104 % of control
endpoint: mean survival time, dose: 20.0 mg/kg/injection, schedule: Q01DX009 (ip), vehicle: saline with Tween-80
  T/C: 105 % of control
endpoint: mean survival time, dose: 40.0 mg/kg/injection, schedule: Q01DX009 (ip), vehicle: saline with Tween-80
  T/C: 100 % of control
endpoint: mean survival time, dose: 100.0 mg/kg/injection, schedule: Q01DX009 (ip), vehicle: other
  T/C: 102 % of control
endpoint: mean survival time, dose: 100.0 mg/kg/injection, schedule: Q04DX003 (ip), vehicle: Klucel (hydroxypropylcellulose) (HPC)
  T/C: 102 % of control
endpoint: mean survival time, dose: 200.0 mg/kg/injection, schedule: Q01DX009 (ip), vehicle: other
  T/C: 96 % of control
endpoint: mean survival time, dose: 200.0 mg/kg/injection, schedule: Q04DX003 (ip), vehicle: Klucel (hydroxypropylcellulose) (HPC)
  T/C: 107 % of control
endpoint: mean survival time, dose: 400.0 mg/kg/injection, schedule: Q04DX003 (ip), vehicle: Klucel (hydroxypropylcellulose) (HPC)
  T/C: 102 % of control

## O=P(Oc1ccc(OP(=O)(N2CC2)N2CC2)cc1)(N1CC1)N1CC1
endpoint: mean survival time, dose: 58.0 mg/kg/injection, schedule: Q01DX001 (ip), vehicle: saline
  T/C: 119 % of control
endpoint: mean survival time, dose: 133.0 mg/kg/injection, schedule: Q01DX001 (ip), vehicle: saline
  T/C: 152 % of control
[7]
  T/C: 179 % of control
endpoint: mean survival time, dose: 300.0 mg/kg/injection, schedule: Q01DX001 (ip), vehicle: saline
  T/C: 89 % of control

## O=P(O)(O)OP(=O)(O)O.[NH-]CC[NH-].[NH-]CC[NH-].[Pd+2].[Pd+2]
endpoint: mean survival time, dose: 3.13 mg/kg/injection, schedule: Q04DX003 (ip), vehicle: distilled water + Tween-80
  T/C: 98 % of control
endpoint: mean survival time, dose: 6.25 mg/kg/injection, schedule: Q04DX003 (ip), vehicle: distilled water + Tween-80
  T/C: 93 % of control
endpoint: mean survival time, dose: 12.5 mg/kg/injection, schedule: Q04DX003 (ip), vehicle: distilled water + Tween-80
  T/C: 87 % of control
endpoint: mean survival time, dose: 25.0 mg/kg/injection, schedule: Q04DX003 (ip), vehicle: distilled water + Tween-80
  T/C: 96 % of control
endpoint: mean survival time, dose: 50.0 mg/kg/injection, schedule: Q04DX003 (ip), vehicle: distilled water + Tween-80
  T/C: 100 % of control
endpoint: mean survival time, dose: 100.0 mg/kg/injection, schedule: Q04DX003 (ip), vehicle: distilled water + Tween-80
  T/C: 105 % of control

## O=c1cn[nH]c2cc(Cl)ccc12
[2]
  T/C: 91 % of control
[1]
  T/C: 100 % of control
[3]
  T/C: 101 % of control
[4]
  T/C: 105 % of control
[5]
  T/C: 92 % of control
[6]
  T/C: 97 % of control

## CC1C=CC(C(=O)Nc2ccc(Cl)c(Cl)c2)N1C (stereo not given)
[4]
  T/C: 92 % of control

## NC(N)=NCCN=C(N)N
endpoint: mean survival time, dose: 100.0 mg/kg/injection, schedule: Q01DX001 (ip), vehicle: saline
  T/C: 105 % of control
[7]
  T/C: 94 % of control
endpoint: mean survival time, dose: 400.0 mg/kg/injection, schedule: Q01DX001 (ip), vehicle: saline
  T/C: 100 % of control

## NC(N)=N/N=C/C/C=N/N=C(N)N
endpoint: mean survival time, dose: 30.0 mg/kg/injection, schedule: Q01DX009 (ip), vehicle: saline
  T/C: 91 % of control
endpoint: mean survival time, dose: 60.0 mg/kg/injection, schedule: Q01DX009 (ip), vehicle: saline
  T/C: 90 % of control
endpoint: mean survival time, dose: 120.0 mg/kg/injection, schedule: Q01DX009 (ip), vehicle: saline
  T/C: 93 % of control
endpoint: mean survival time, dose: 240.0 mg/kg/injection, schedule: Q01DX009 (ip), vehicle: saline
  T/C: 90 % of control
endpoint: mean survival time, dose: 480.0 mg/kg/injection, schedule: Q01DX009 (ip), vehicle: saline
  T/C: 90 % of control

## CCn1cnc2c(SC3CCCC3)ncnc21
endpoint: mean survival time, dose: 100.0 mg/kg/injection, schedule: Q01DX001 (ip), vehicle: carboxymethylcellulose (CMC)
  T/C: 112 % of control
endpoint: mean survival time, dose: 200.0 mg/kg/injection, schedule: Q01DX001 (ip), vehicle: carboxymethylcellulose (CMC)
  T/C: 108 % of control
endpoint: mean survival time, dose: 400.0 mg/kg/injection, schedule: Q01DX001 (ip), vehicle: carboxymethylcellulose (CMC)
  T/C: 121 % of control

## NC1=NCN2C(=N1)OC1C(O)C(CO)OC12 (stereo not given)
[8]
  T/C: 94 % of control and 106 % of control
endpoint: mean survival time, dose: 3.12 mg/kg/injection, schedule: Q01DX009 (ip), vehicle: saline
  T/C: 91 % of control and 102 % of control
endpoint: mean survival time, dose: 6.25 mg/kg/injection, schedule: Q01DX009 (ip), vehicle: saline
  T/C: 91 % of control and 103 % of control
endpoint: mean survival time, dose: 12.5 mg/kg/injection, schedule: Q01DX009 (ip), vehicle: saline
  T/C: 91 % of control
endpoint: mean survival time, dose: 25.0 mg/kg/injection, schedule: Q01DX009 (ip), vehicle: saline
  T/C: 91 % of control and 100 % of control
endpoint: mean survival time, dose: 50.0 mg/kg/injection, schedule: Q01DX009 (ip), vehicle: saline
  T/C: 91 % of control and 97 % of control
endpoint: mean survival time, dose: 100.0 mg/kg/injection, schedule: Q01DX009 (ip), vehicle: saline
  T/C: 92 % of control and 96 % of control
endpoint: mean survival time, dose: 200.0 mg/kg/injection, schedule: Q01DX009 (ip), vehicle: saline
  T/C: 88 % of control and 100 % of control

## CN(C)c1ccc(/C=C/c2ccc3ccccc3n2)c(F)c1
endpoint: mean survival time, dose: 100.0 mg/kg/injection, schedule: Q01DX009 (ip), vehicle: Klucel (hydroxypropylcellulose) (HPC)
  T/C: 100 % of control
endpoint: mean survival time, dose: 200.0 mg/kg/injection, schedule: Q01DX009 (ip), vehicle: Klucel (hydroxypropylcellulose) (HPC)
  T/C: 98 % of control
endpoint: mean survival time, dose: 400.0 mg/kg/injection, schedule: Q01DX009 (ip), vehicle: Klucel (hydroxypropylcellulose) (HPC)
  T/C: 89 % of control

## O/N=C(/c1ccccc1)c1ccc(O)cc1
endpoint: median survival time, dose: 25.0 mg/kg/injection, schedule: Q01DX001 (ip), vehicle: saline with Tween-80
  T/C: 104 % of control
endpoint: median survival time, dose: 50.0 mg/kg/injection, schedule: Q01DX001 (ip), vehicle: saline with Tween-80
  T/C: 101 % of control
endpoint: median survival time, dose: 100.0 mg/kg/injection, schedule: Q01DX001 (ip), vehicle: saline with Tween-80
  T/C: 98 % of control
endpoint: median survival time, dose: 200.0 mg/kg/injection, schedule: Q01DX001 (ip), vehicle: saline with Tween-80
  T/C: 104 % of control
endpoint: median survival time, dose: 400.0 mg/kg/injection, schedule: Q01DX001 (ip), vehicle: saline with Tween-80
  T/C: 101 % of control

## CCCCCCCCCCCCCCCC[n+]1ccccc1
endpoint: mean survival time, dose: 0.78 mg/kg/injection, schedule: Q01DX009 (ip), vehicle: saline
  T/C: 112 % of control
[8]
  T/C: 120 % of control
endpoint: mean survival time, dose: 3.13 mg/kg/injection, schedule: Q01DX009 (ip), vehicle: saline
  T/C: 120 % of control
